These results are taken from ChEMBL document CHEMBL1287761, “The novel benzopyran class of selective cyclooxygenase-2 inhibitors-part I: the first clinical candidate” (Bioorg Med Chem Lett, 2010).

A short description of data set [1]: Half life in dog. The format is ADME, organism-based, Canis lupus familiaris. Particulars: in vivo.
The nature of data set [2]: Half life in rat. The format is ADME, organism-based. As to conditions: in vivo.
In data set [3] the test system is Rattus norvegicus. Kind of data set: Antiinflammatory activity against carrageenan-induced inflammation in Sprague-Dawley rat air pouch model assessed as reduction in PGE2 level administered 3 hrs after carrageenan challenge. The class given is functional.
For data set [4], the species on record is Rattus norvegicus. Kind of data set: Antiinflammatory effect in complete Freund's adjuvant-induced Lewis rat arthritis model assessed as reduction in paw swelling by volume displacement plethysmometry. The format is functional.
In data set [5] the test system is Rattus norvegicus. Kind of data set: Antiinflammatory activity against carrageenan-induced paw edema in Sprague-Dawley rat administered 1 to 3 hrs after carrageenan challenge. The format is functional.
Data set [6] deals with Rattus norvegicus. Kind of data set: Analgesic activity against carrageenan-induced thermal hyperalgesia in Sprague-Dawley rat assessed as paw withdrawal latency administered 1 to 3 hrs after carrageenan challenge. The class given is functional.
The target of data set [7] is T1, Prostaglandin G/H synthase 2 (Homo sapiens, UniProt P35354).
T1 sequence (P35354 whole entry): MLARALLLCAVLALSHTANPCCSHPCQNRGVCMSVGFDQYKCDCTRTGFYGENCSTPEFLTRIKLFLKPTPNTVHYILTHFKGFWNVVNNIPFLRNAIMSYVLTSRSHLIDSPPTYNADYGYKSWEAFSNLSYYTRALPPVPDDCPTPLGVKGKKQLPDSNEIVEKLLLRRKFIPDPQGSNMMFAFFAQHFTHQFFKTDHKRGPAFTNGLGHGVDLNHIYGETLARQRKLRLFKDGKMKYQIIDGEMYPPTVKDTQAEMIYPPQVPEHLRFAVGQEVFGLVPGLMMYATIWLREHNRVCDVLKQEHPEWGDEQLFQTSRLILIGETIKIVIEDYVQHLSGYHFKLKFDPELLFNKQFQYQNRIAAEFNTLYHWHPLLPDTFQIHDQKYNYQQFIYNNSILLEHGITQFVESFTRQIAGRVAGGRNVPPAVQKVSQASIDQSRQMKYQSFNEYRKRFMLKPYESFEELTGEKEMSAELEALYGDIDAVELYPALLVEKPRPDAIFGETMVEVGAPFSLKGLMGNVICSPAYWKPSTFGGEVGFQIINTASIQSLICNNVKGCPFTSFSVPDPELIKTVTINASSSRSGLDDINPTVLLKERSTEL
Kind of data set: Inhibition of human COX-2.

The target of data set [8] is Prostaglandin G/H synthase 1 (Homo sapiens, UniProt P23219). Kind of data set: Inhibition of human COX-1.
Chain of Prostaglandin G/H synthase 1 (P23219 whole entry): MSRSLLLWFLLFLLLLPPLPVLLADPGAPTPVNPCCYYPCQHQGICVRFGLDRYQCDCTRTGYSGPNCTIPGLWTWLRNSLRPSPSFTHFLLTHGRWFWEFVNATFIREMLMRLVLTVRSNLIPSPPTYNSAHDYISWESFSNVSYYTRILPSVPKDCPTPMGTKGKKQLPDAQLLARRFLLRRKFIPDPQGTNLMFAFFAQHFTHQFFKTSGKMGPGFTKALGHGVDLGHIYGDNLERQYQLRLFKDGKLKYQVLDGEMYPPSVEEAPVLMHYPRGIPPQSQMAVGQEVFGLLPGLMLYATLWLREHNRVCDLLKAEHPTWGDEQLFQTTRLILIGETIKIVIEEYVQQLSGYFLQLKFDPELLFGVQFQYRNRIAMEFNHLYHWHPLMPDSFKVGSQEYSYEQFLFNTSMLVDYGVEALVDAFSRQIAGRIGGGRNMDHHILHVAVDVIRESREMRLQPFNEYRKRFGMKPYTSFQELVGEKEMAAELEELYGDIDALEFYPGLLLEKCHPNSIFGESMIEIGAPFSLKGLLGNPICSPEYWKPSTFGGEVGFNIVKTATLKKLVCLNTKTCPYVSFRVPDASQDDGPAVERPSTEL
In data set [9] the target is COX-1/COX-2 (Homo sapiens) (UniProt P35354+P23219). Kind of data set: Selectivity ratio of IC50 for human COX-1 to IC50 for human COX-2.
Chain of COX-1/COX-2 (Homo sapiens) (P23219 whole entry, looked up, one chain of several): as the sequence (P23219 whole entry) above

As for `O=C(O)C1=Cc2cc(Cl)cc(Cl)c2O[C@@H]1C(F)(F)F`, the half-life in [1] was 20.4 h; in data set [2], 10.1 h. Further, the ED50 in the data set on Rattus norvegicus [3] (Rattus norvegicus, Sprague-Dawley, 3 h) amounted to 0.54 mg/kg; in the data set filed under Rattus norvegicus [4], 0.03 mg/kg; in the data set with Rattus norvegicus [5] it was 7.1 mg/kg; in the data set on Rattus norvegicus [6], 2.6 mg/kg.
With `C#Cc1cc(Cl)cc2c1OC(C(F)(F)F)C(C(=O)O)=C2` (stereo not drawn), the IC50 is 43 nM in data set [7] and < 350 nM in [8].
`O=C(O)C1=Cc2cc(Cl)cc(-c3ccccc3)c2OC1C(F)(F)F` (stereo not drawn): the IC50 came to 110 nM in [7] and 3110 nM in data set [8].
As for `O=C(O)C1=Cc2c(Cl)cc(Cl)cc2OC1C(F)(F)F` (stereo not drawn), the IC50 is 12000 nM in data set [7] and 145000 nM in data set [8]. The Ratio IC50 in [9] came out at 12.
In the same order, the values of `O=C(O)C1=Cc2c(cc(Cl)c(Cl)c2Cl)OC1C(F)(F)F` (stereo not drawn) are 6 nM, 880 nM and 136.
In the case of `O=C(O)C1=Cc2ccc(Cl)c(Cl)c2OC1C(F)(F)F` (stereo not drawn), the IC50 in data set [7] and in data set [8] was 300000 nM throughout. The Ratio IC50 in data set [9] was 1.
Take `NS(=O)(=O)c1ccc(-c2cc(Cl)cc3c2OC(C(F)(F)F)C(C(=O)O)=C3)cc1` (stereo not drawn): the values for the IC50 in [7] and in data set [8] were 760 nM and 1740 nM, respectively.
Take `Cc1ccc(-c2cc(C(F)(F)F)nn2-c2ccc(S(N)(=O)=O)cc2)cc1` [CELECOXIB]: in the data set on Rattus norvegicus [3], the “inhibition (INH)” value came out at 94%. Further, the results for the ED50 in the data set listed under Rattus norvegicus [4] and in the data set with Rattus norvegicus [6] were 0.3 mg/kg and 35 mg/kg, respectively.
Turning to `O=C(O)C1=Cc2cc(Cl)c(Cl)c(Cl)c2OC1C(F)(F)F` (stereo not drawn), the IC50 amounted to 43 nM in data set [7] and 2700 nM in data set [8]. In addition, the Ratio IC50 in [9] came out at 63.
Take `O=C(O)C1=Cc2c(Cl)ccc(Cl)c2OC1C(F)(F)F` (stereo not drawn): the IC50 worked out at 100 nM in [7] and 11000 nM in data set [8]. Further, the Ratio IC50 in [9] amounted to 110.
On to `O=C(O)C1=Cc2cc(Cl)cc(C#Cc3ccccc3)c2OC1C(F)(F)F` (stereo not drawn), for which the IC50 amounted to 140 nM in data set [7] and 33000 nM in data set [8].
Regarding `O=C(O)C1=Cc2cc(Cl)c(Cl)cc2OC1C(F)(F)F` (stereo not drawn), the IC50 in [7] was found to be 62 nM; in data set [8], 94500 nM. Besides, the Ratio IC50 in data set [9] stood at 1520.
As for `C=Cc1cc(Cl)cc2c1OC(C(F)(F)F)C(C(=O)O)=C2` (stereo not drawn), the IC50 in data set [7] is 18 nM; in data set [8] it was 140 nM.
For `O=C(O)C1=Cc2cc(Cl)ccc2OC1C(F)(F)F` (stereo not drawn), in the data set with Rattus norvegicus [3], the “inhibition (INH)” value came out at 98%. In addition, the IC50 in data set [7] was determined as 320 nM; in [8], 29200 nM. Further, the median effective dose (ED50) in the data set listed under Rattus norvegicus [4] was 0.4 mg/kg; in the data set on Rattus norvegicus [6], 6 mg/kg. Besides, the Ratio IC50 in data set [9] came to 90.

By half-life is commonly meant the time in which the quantity being followed falls by half. The ED50 is the midpoint of the dose-response relation. One may read the IC50 as the concentration at which inhibition is half-maximal. A lower IC50 goes with higher potency.
